Data on one molecule can be found in publication PMC4449006, “Targeting KRAS Oncogene in Colon Cancer Cells with 7-Carboxylate Indolo[3,2-b]quinoline Tri-Alkylamine Derivatives” (PLoS ONE, 2015).

For orientation: IC50 means the point on the concentration scale where inhibition reaches its midpoint.

The subject of assay [1] is HCT116 cells. The experiment in a line: MTS short-term cytotoxicity assay (72 h), HCT116. It is filed as cell-based, human. The procedure: (§1) The short-term effect of compounds at 72 h on cell growth was studied using colorectal carcinoma cell lines with different KRAS and TP53 genotypes: human colorectal carcinoma HCT116 (mut Kras, wild-type (wt) p53), and human metastatic colorectal adenocarcinoma SW620 (mut Kras, mut p53). In parallel, we also used the immortalized human embryonic kidney cell line HEK293T (wt Kras, wt p53) and normal human colon fibroblast cells CCD18co (wt Kras, wt p53).
(§2) SW620 human colorectal adenocarcinoma cells (European Collection of Cell Cultures, ECACC, Porton Down, Wiltshire, UK), HEK293T human embryonic kidney cells (ATCC, LGC Standards, UK) HCT116 human colon carcinoma cells (ECACC), HCT116 p53(+/+) and p53(−/−) isogenic human colon cancer cells (GRCF Cell Center and Biorepository, the Johns Hopkins University, School of Medicine, Baltimore, MD, USA), were grown in Dulbecco’s modified Eagle’s medium (DMEM) supplemented with 10% fetal bovine serum, and 1% antibiotic/antimycotic (Invitrogen, Grand Island, NY, USA), CCD18co human colon fibroblasts (ATCC, CRL-1459) were grown in Minimum Essential Medium (MEM) supplemented with 10% fetal bovine serum, 1% antibiotic/antimycotic, 2 mM GlutaMAX, 0,1 mM Non-essential amino acids (NEAA) (Invitrogen) and […] Recombinant Human TNF-α (Peprotech, USA) and maintained at 37°C in a humidified atmosphere of 5% CO2.
(§3) Cell viability was evaluated by the tetrazolium dye (MTS) Short-Term Cytotoxicity Assay. […] Following 72 h of compound exposure, cell viability was evaluated using the CellTiter 96 AQueous Non-Radioactive Cell Proliferation Assay (Promega, Madison, WI, USA), using 3-(4,5-dimethylthiazol-2-yl)-5-(3-carboxymethoxyphenyl)-2-(4-sulfophenyl)-2H-tetrazolium, inner salt (MTS) as previously described [35]. Cell viability data were expressed as mean ±SD from at least three independent experiments. IC50 and IC65 values were determined using GaphPad Prism v.5.00 (GraphPad Software). In selected experiments, cell viability was also assessed by trypan blue exclusion assay, and general cell death by LDH activity from cell culture supernatants.

Assay [2] deals with SW620 cells. Put plainly: MTS short-term cytotoxicity assay (72 h), SW620. The class given is cell-based. Conditions: 72 h, MTS, standard errors ≤ 0.1. The procedure: as §1, §2, §3
Assay [3] relates to HEK293T cells. The experiment in a line: MTS short-term cytotoxicity assay (72 h), HEK293T. It is filed as cell-based, human. Conditions: MTS. The procedure: as §1, §2, §3
In assay [4] the test system is CCD18co cells. The experiment in a line: MTS short-term cytotoxicity assay (72 h), CCD18co. The class given is cell-based. Conditions: Homo sapiens, CCD-18Co, MTS, standard errors ≤ 0.1, read-out: CCD18co IC50. As to the method: as §1, §2, §3
The test system of assay [5] is SW620 cells. The experiment in a line: Guava ViaCount assay, SW620. The class given is cell-based, human. Conditions: SW620, 72 h, IC50 and IC65 concentrations. The text has this:
Subsequently, the Guava ViaCount assay was used to evaluate the effects of IQ3A compounds on cell death induction in cancer (HCT116 and SW620) and non-malignant (HEK293T and CCD18co) cells, compared to 5-FU and TMPyP4 at equitoxic concentrations (IC50 and IC65). Down-regulation of mutant KRAS expression by antisense oligonucleotides in colorectal cancer cells,[8],[30] and by a MAZ-binding oligonucleotide decoy in pancreatic cancer cells has been associated with increased apoptosis and cell growth arrest. Also, anticancer drugs, such as 5-FU and G4 stabilizers of telomeric and oncogene promoter sequences such as TMPyP4, are known to induce a generalized cell response leading to cell growth arrest and cell death by apoptosis (DNA damage response),[32], which involves activation of the pro-apoptotic transcription factor p53 among other pathways in the case of 5-FU [34]. […] The effect of TMPyP4 on SW620 was not studied, as this cell line was not sensitive to this compound up to a 20 μM concentration.
Fig 3 Exposure to IQ3A compounds induces cell death, mainly by apoptosis in HCT116 cells. […] Results are expressed as the mean percentage (%) of viable, mid-apoptotic and dead cells ± SEM, of at least three different experiments, for A. IC50, and for B. IC65 compound concentrations. a, p < 0.05; b, p < 0.01 from DMSO (vehicle control); c, p < 0.05; and d, p < 0.01 from 5-FU. […]

Take `O=c1[nH]cc(F)c(=O)[nH]1` [5-FU, 5-fluorouracil, reference compound]: in assay [1] (72 h, MTS, standard errors ≤ 0.1), the “HCT116 IC65” value was determined as 4.13 µM. In assay [1] (CCD18co vs HCT116), the “Selective index (SI) = IC50 CCD-18co / IC50 HCT116” value is recorded as more than 42. Besides, the IC50 in assay [1] (Homo sapiens, HCT-116, 72 h, MTS, standard errors ≤ 0.1, read-out: HCT116 IC50) is 2.38 µM; in assay [2] (Homo sapiens, SW-620, read-out: SW620 IC50) it was 5.39 µM; in assay [3] (Homo sapiens, HEK-293T, standard errors ≤ 0.1, read-out: HEK293T IC50), 2.66 µM; in assay [4], more than 100 µM. Also, the “SW620 IC65” value in assay [2] is 8.32 µM. In assay [3] (standard errors ≤ 0.1), the “HEK293T IC65” value came out at 4.13 µM. Also, in assay [5], the “induction of apoptosis / cell death” value is given as “able to induce apoptosis in a dose-dependent manner”.
